Test system: 287954-098-R-J1 tumor spheroid viability
Assay: Anticancer human tumor 287954-098-R-J1 patient-derived Ewing sarcoma cell line growth inhibition
Settings: spheroids with HUVEC and MSC; for IC50: curve of first compound; for viability, T/C: stronger effect = lower value
Outline: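 Complex tumor spheroids combined malignant cells with endothelial cells and mesenchymal stem cells. DNA-damaging drugs and DNA repair inhibitors were tested alone and in combination, at half-log dilutions down from clinical Cmax (top 10 microM if Cmax unknown), 0.25% DMSO final.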
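Also: spheroids exposed to compound for 7 days before viability readout.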
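For viability, T/C in this document: luminescent signal taken as surrogate of viable cell content; 100% = DMSO vehicle control viability and lower means growth inhibition.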

`Cc1sc2c(c1C)C(c1ccc(Cl)cc1)=NC(CC(=O)Nc1ccc(O)cc1)c1nnc(C)n1-2` (stereo not given) + CC[C@@]1(O)C(=O)OCc2c1cc1n(c2=O)Cc2cc3c(CN(C)C)c(O)ccc3nc2-1 showed an IC50 (second compound 0.003 µM) of 0.555 µM, an IC50 (second compound 0.00949 µM) of 0.185 µM and an IC50 (second compound 0.03 µM) of less than 0.00949 µM. It also gave an IC50 (second compound 0.0949 µM) of less than 0.00949 µM, an IC50 (second compound 0.3 µM) of less than 0.00949 µM and a viability, T/C (second compound 0.003 µM, first compound 0.00949 µM) of 110%. The viability, T/C (second compound 0.003 µM, first compound 0.03 µM) was 117%, the viability, T/C (second compound 0.003 µM, first compound 0.0949 µM) was 123% and the viability, T/C (second compound 0.003 µM, first compound 0.3 µM) was 90.1%. For the same molecule, the viability, T/C (second compound 0.003 µM, first compound 0.949 µM) was 15.2%, the viability, T/C (second compound 0.003 µM, first compound 3 µM) was 1.91% and the viability, T/C (second compound 0.00949 µM, first compound 0.00949 µM) was 117%. For the same molecule, the viability, T/C (second compound 0.00949 µM, first compound 0.03 µM) was 112%, the viability, T/C (second compound 0.00949 µM, first compound 0.0949 µM) was 106% and the viability, T/C (second compound 0.00949 µM, first compound 0.3 µM) was 9.5%. The viability, T/C (second compound 0.00949 µM, first compound 0.949 µM) was 1.8%, the viability, T/C (second compound 0.00949 µM, first compound 3 µM) was 1.47% and the viability, T/C (second compound 0.03 µM, first compound 0.00949 µM) was 2.84%. The viability, T/C (second compound 0.03 µM, first compound 0.03 µM) was 3%, the viability, T/C (second compound 0.03 µM, first compound 0.0949 µM) was 1.99% and the viability, T/C (second compound 0.03 µM, first compound 0.3 µM) was 1.63%. It also gave a viability, T/C (second compound 0.03 µM, first compound 0.949 µM) of 1.17%, a viability, T/C (second compound 0.03 µM, first compound 3 µM) of 1.04% and a viability, T/C (second compound 0.0949 µM, first compound 0.00949 µM) of 1.98%. For the same molecule, the viability, T/C (second compound 0.0949 µM, first compound 0.03 µM) was 2.06%, the viability, T/C (second compound 0.0949 µM, first compound 0.0949 µM) was 1.8% and the viability, T/C (second compound 0.0949 µM, first compound 0.3 µM) was 1.32%. The viability, T/C (second compound 0.0949 µM, first compound 0.949 µM) was 1.09%, the viability, T/C (second compound 0.0949 µM, first compound 3 µM) was 1.22% and the viability, T/C (second compound 0.3 µM, first compound 0.00949 µM) was 1.94%. The viability, T/C (second compound 0.3 µM, first compound 0.03 µM) was 2.02%, the viability, T/C (second compound 0.3 µM, first compound 0.0949 µM) was 1.68% and the viability, T/C (second compound 0.3 µM, first compound 0.3 µM) was 1.25%. For the same molecule, the viability, T/C (second compound 0.3 µM, first compound 0.949 µM) was 1.2% and the viability, T/C (second compound 0.3 µM, first compound 3 µM) was 1%.
For `[2H]c1nc(C)nc([2H])c1-c1cc(NC[C@@H](C)c2cccc3c(C(=O)NC)ccnc23)ncn1` + COc1cc2c(cc1O)CCNC21CSC2c3c(OC(C)=O)c(C)c4c(c3C(COC1=O)N1C(O)C3Cc5cc(C)c(OC)c(O)c5C(C21)N3C)OCO4, the IC50 (second compound 30 pM) was greater than 10 µM, the IC50 (second compound 94.9 pM) was greater than 10 µM and the IC50 (second compound 0.0003 µM) was greater than 10 µM. It also gave an IC50 (second compound 0.000949 µM) of less than 0.0316 µM, an IC50 (second compound 0.003 µM) of less than 0.0316 µM and a viability, T/C (second compound 30 pM, first compound 0.0316 µM) of 109%. For the same molecule, the viability, T/C (second compound 30 pM, first compound 0.1 µM) was 104%, the viability, T/C (second compound 30 pM, first compound 0.316 µM) was 104% and the viability, T/C (second compound 30 pM, first compound 1 µM) was 108%. For the same molecule, the viability, T/C (second compound 30 pM, first compound 3.16 µM) was 109%, the viability, T/C (second compound 30 pM, first compound 10 µM) was 98.6% and the viability, T/C (second compound 94.9 pM, first compound 0.0316 µM) was 106%. For the same molecule, the viability, T/C (second compound 94.9 pM, first compound 0.1 µM) was 114%, the viability, T/C (second compound 94.9 pM, first compound 0.316 µM) was 107% and the viability, T/C (second compound 94.9 pM, first compound 1 µM) was 110%. For the same molecule, the viability, T/C (second compound 94.9 pM, first compound 3.16 µM) was 101%, the viability, T/C (second compound 94.9 pM, first compound 10 µM) was 96.7% and the viability, T/C (second compound 0.0003 µM, first compound 0.0316 µM) was 105%. It also gave a viability, T/C (second compound 0.0003 µM, first compound 0.1 µM) of 108%, a viability, T/C (second compound 0.0003 µM, first compound 0.316 µM) of 112% and a viability, T/C (second compound 0.0003 µM, first compound 1 µM) of 107%. It also gave a viability, T/C (second compound 0.0003 µM, first compound 3.16 µM) of 95.4%, a viability, T/C (second compound 0.0003 µM, first compound 10 µM) of 89.2% and a viability, T/C (second compound 0.000949 µM, first compound 0.0316 µM) of 0.38%. The viability, T/C (second compound 0.000949 µM, first compound 0.1 µM) was 0.51%, the viability, T/C (second compound 0.000949 µM, first compound 0.316 µM) was 0.33% and the viability, T/C (second compound 0.000949 µM, first compound 1 µM) was 0.67%. The viability, T/C (second compound 0.000949 µM, first compound 3.16 µM) was 0.26%, the viability, T/C (second compound 0.000949 µM, first compound 10 µM) was 0.31% and the viability, T/C (second compound 0.003 µM, first compound 0.0316 µM) was 0.21%. It also gave a viability, T/C (second compound 0.003 µM, first compound 0.1 µM) of 0.24%, a viability, T/C (second compound 0.003 µM, first compound 0.316 µM) of 0.17% and a viability, T/C (second compound 0.003 µM, first compound 1 µM) of 0.15%. It also gave a viability, T/C (second compound 0.003 µM, first compound 3.16 µM) of 0.14% and a viability, T/C (second compound 0.003 µM, first compound 10 µM) of 0.25%.

From PubChem BioAssay AID1845194 (Molecular Pharmacology Branch, DTP, NCI, 2023)
